Measured values published in patent publication US20220390426A1, “AIE PROBE AND APPLICATION THEREOF” (The Hong Kong University of Science and Technology, priority 2020, published 2022).

Target: albumin (HSA) (Homo sapiens, UniProt P02768)
Assay: Albumin detection by ASQ fluorescence in PBS buffer
Type: binding
Details: [ASQ]=100 μM, λex=430 nm
Procedure: FIG. 4A The fluorescence response of ASQ to HSA. FIG. 4B Linear plot of l/l0 at 542 nm versus HSA concentrations. l0 equals to the intensity of [HSA]=0 mg/L. FIG. 4C Selectivity study of ASQ towards albumin. l0 equals the intensity of the blank sample. [Biomolecules]=1 mg/mL. [ASQ]=100 μM, λex=430 nm.
Albumin protein is the substance carrier in blood with multiple polar or nonpolar binding sites. […] There is a very good linear relationship between the fluorescence intensity and albumin concentration (FIG. 4B).

Chain of albumin (HSA) (P02768 25-609): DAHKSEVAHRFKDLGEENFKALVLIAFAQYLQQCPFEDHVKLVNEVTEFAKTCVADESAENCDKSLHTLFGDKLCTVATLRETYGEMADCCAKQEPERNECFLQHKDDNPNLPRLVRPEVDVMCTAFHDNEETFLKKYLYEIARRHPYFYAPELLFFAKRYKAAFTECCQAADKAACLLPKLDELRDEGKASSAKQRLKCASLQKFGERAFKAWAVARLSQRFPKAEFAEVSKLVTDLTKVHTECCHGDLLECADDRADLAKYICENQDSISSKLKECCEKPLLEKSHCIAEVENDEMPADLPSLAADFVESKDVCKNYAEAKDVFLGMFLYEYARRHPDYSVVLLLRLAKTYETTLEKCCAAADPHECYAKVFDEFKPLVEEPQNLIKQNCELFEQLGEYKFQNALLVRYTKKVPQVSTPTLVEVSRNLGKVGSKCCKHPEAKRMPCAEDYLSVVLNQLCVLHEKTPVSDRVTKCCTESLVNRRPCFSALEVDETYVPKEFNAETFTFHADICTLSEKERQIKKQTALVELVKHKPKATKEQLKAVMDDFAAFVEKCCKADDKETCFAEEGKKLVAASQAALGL

- fluorescence emission response on addition of albumin (ASQ's PBS buffer solution): greatly enhanced
- selectivity towards albumin versus other common biomolecules such as hemoglobin (emission turn-on) ([Biomolecules]=1 mg/mL): good selectivity towards albumin
SMILES: CN(C)c1ccc(C=Cc2nc3ccccc3[nH]c2=O)cc1 [ASQ]
